Starred links: 1 amine or outer side, 2 acyl side, 3 side chain; linkers in the order of their positions; H or OH if unused. Positions of bridges follow the written chain, without caps; N, C: chain ends. Non-standard residues stand in square brackets, D forms with d. Residues, ends and D or L forms follow the SMILES beside them. ξ: configuration not given here. Tyrψ(CN4)Ala = C[C@@H](C(=O)[*:2])n1nnnc1[C@H](Cc1ccc(O)cc1)N[*:1]; X1 = CCCC[C@@H](C(=O)[*:2])n1nnnc1[C@H](Cc1c[nH]c2ccccc12)N[*:1]; X5 = C[C@@H](C(=O)[*:2])n1nnnc1[C@H](Cc1ccccc1)N[*:1]; Morpholine(3S-CO) = O=C(O)[C@@H]1COCCN1; Bta = N[C@@H](Cc1csc2ccccc12)C(=O)O; Hyp = O=C(O)[C@@H]1C[C@@H](O)CN1; NMeNle = CCCC[C@H](NC)C(=O)O; NMeA = CN[C@@H](C)C(=O)O; Orn = NCCC[C@H](N)C(=O)O; Dap = NC[C@H](N)C(=O)O; ξC = NC(CS)C(=O)O; Sar = CNCC(=O)O
What follows are compounds tested against T1, PD-1-Ig/PD-L1-His (Homo sapiens, UniProt Q9NZQ7) (assay: PD-1/PD-L1 Homogenous Time-Resolved Fluorescence (HTRF) binding assay). Conditions: inhibition of PD-1-Ig binding to PD-L1-TVMV-His; numeric values.
T1 construct: [hPD-L1(19-239)-tobacco vein mottling virus protease cleavage site (TVMV)-His]; made in house; host or cells: HEK293T cells
T1 sequence (Q9NZQ7 with tags, fused parts or gaps): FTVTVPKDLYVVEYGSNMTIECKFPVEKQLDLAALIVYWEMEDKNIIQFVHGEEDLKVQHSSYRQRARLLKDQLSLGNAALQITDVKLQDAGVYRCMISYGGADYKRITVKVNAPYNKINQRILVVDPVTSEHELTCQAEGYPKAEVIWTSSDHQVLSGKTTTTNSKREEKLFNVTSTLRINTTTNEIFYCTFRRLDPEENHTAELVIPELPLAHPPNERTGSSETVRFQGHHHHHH
Source text: The ability of the macrocyclic peptides of the present disclosure to bind to PD-L1 was investigated using a PD-1/PD-L1 Homogenous Time-Resolved Fluorescence (HTRF) binding assay.
Homogenous Time-Resolved Fluorescence (HTRF) Assays of Binding of Soluble PD-1 to Soluble PD-L1. Soluble PD-1 and soluble PD-L1 refers to proteins with carboxyl-end truncations that remove the transmembrane-spanning regions and are fused to heterologous sequences, specifically the Fc portion of the human immunoglobuling G sequence (Ig) or the hexahistidine epitope tag (SEQ ID NO: 3) (His). All binding studies were performed in an HTRF assay buffer consisting of dPBS supplemented with 0.1% (w/v) bovine serum albumin and 0.05% (v/v) Tween-20. For the PD-1-Ig/PD-L1-His binding assay, inhibitors were pre-incubated with PD-L1-His (10 nM final) for 15 m in 4 μl of assay buffer, followed by addition of PD-1-Ig (20 nM final) in 1 μl of assay buffer and further incubation for 15 m. PD-L1 fusion proteins from either human, cynomologous macaques, mouse, or other species were used. HTRF detection was achieved using europium crypate-labeled anti-Ig monoclonal antibody (1 nM final) and allophycocyanin (APC) labeled anti-His monoclonal antibody (20 nM final). Antibodies were diluted in HTRF detection buffer and 5 μl was dispensed on top of binding reaction. The reaction was allowed to equilibrate for 30 minutes and signal (665 nm/620 nm ratio) was obtained using an EnVision fluorometer. Additional binding assays were established between PD-1-Ig/PD-L2-His (20 and 5 nM, respectively), CD80-His/PD-L1-Ig (100 and 10 nM, respectively) and CD80-His/CTLA4-Ig (10 and 5 nM, respectively). Binding/competition studies between biotinylated Compound No. 71 and human PD-L1-His were performed as follows. Macrocyclic peptide inhibitors were pre-incubated with PD-L1-His (10 nM final) for 60 minutes in 4 μl of assay buffer followed by addition of biotinylated Compound No. 71 (0.5 nM final) in 1 μl of assay buffer. Binding was allowed to equilibrate for 30 minutes followed by addition of europium crypated labeled Streptavidin (2.5 pM final) and APC-labeled anti-His (20 nM final) in 5 μl of HTRF buffer. The reaction was allowed to equilibrate for 30 m and signal (665 nm/620 nm ratio) was obtained using an EnVision fluorometer.
Recombinant Proteins. Carboxyl-truncated human PD-1 (amino acids 25-167) with a C-terminal human Ig epitope tag [hPD-1 (25-167)-3S-IG] and human PD-L1 (amino acids 18-239) with a C-terminal His epitope tag [hPD-L1(19-239)-tobacco vein mottling virus protease cleavage site (TVMV)-His] were expressed in HEK293T cells and purified sequentially by recombinant Protein A affinity chromatography and size exclusion chromatography. Human PD-L2-His (Sino Biologicals), CD80-His (Sino Biologicals), CTLA4-Ig (RnD Systems) were all obtained through commercial sources.

| IC50 [nM] | Compound |
| --- | --- |
| 30 | CCCC[C@H]1C(=O)N(C)[C@@H](CCCC)C(=O)N[C@@H](CCCNC(=N)N)C(=O)N[C@H](C(=O)NCC(N)=O)CSCC(=O)N[C@@H](Cc2ccc(O)cc2)c2nnnn2[C@@H](C)C(=O)N[C@@H](CC(N)=O)C(=O)N2CCC[C@H]2C(=O)N[C@@H](Cc2cnc[nH]2)C(=O)N[C@@H](CC(C)C)C(=O)N(C)CC(=O)N[C@@H](Cc2c[nH]c3ccccc23)C(=O)N[C@@H](CO)C(=O)N[C@@H](Cc2c[nH]c3ccccc23)C(=O)N1C [Example 1012] ({CH2CO}-[Tyrψ(CN4)Ala]NPHL[Sar]WSW[NMeNle][NMeNle]RCG-NH2; thioether N-13) |

Same assay, conditions: inhibition of PD-1-Ig binding to PD-L1-TVMV-His; range classes

| IC50 [nM] | Compound |
| --- | --- |
| 100 to 10000 | CCCC[C@H]1C(=O)N[C@@H](CN)C(=O)N[C@H](C(=O)NCC(N)=O)CSCC(=O)N[C@@H](Cc2ccc(O)cc2)C(=O)N(C)[C@@H](C)C(=O)N[C@@H](CC(=O)O)C(=O)N2CCC[C@H]2C(=O)N[C@@H](Cc2cnc[nH]2)C(=O)N[C@@H](CCC(N)=O)C(=O)N2C[C@H](O)C[C@H]2C(=O)N[C@@H](Cc2c[nH]c3ccccc23)C(=O)N[C@@H](CO)C(=O)N[C@@H](Cc2cccc3ccccc23)c2nnnn2[C@@H](CCCC)C(=O)N1C [Example 1107] |
| 100 to 10000 | CCCC[C@H]1C(=O)N(C)[C@@H](CCCC)C(=O)N[C@@H](CCCNC(=N)N)C(=O)N[C@H](C(=O)NCC(N)=O)CSCC(=O)N[C@@H](Cc2ccccc2)c2nnnn2[C@@H](C)C(=O)N[C@@H](CC(N)=O)C(=O)N2CCC[C@H]2C(=O)N[C@@H](Cc2cnc[nH]2)C(=O)N[C@@H](CC(C)C)C(=O)N2CCC[C@H]2C(=O)N[C@@H](Cc2c[nH]c3ccccc23)C(=O)N[C@@H](CO)C(=O)N[C@@H](Cc2csc3ccccc23)C(=O)N1C [Example 1010] ({CH2CO}-[X5]NPHLPWS[Bta][NMeNle][NMeNle]RCG-NH2; thioether N-13) |
| 10 to 99 | CCCC[C@H]1C(=O)N[C@@H](CCCNC(=N)N)C(=O)N[C@H](C(=O)NCC(N)=O)CSCC(=O)N[C@@H](Cc2ccc(O)cc2)C(=O)N(C)[C@@H](C)C(=O)N[C@@H](CC(N)=O)C(=O)N2CCC[C@H]2C(=O)N[C@@H](Cc2cnc[nH]2)C(=O)N[C@@H](CC(C)C)C(=O)N2C[C@H](O)C[C@H]2C(=O)N[C@@H](Cc2c[nH]c3ccccc23)C(=O)N[C@@H](CO)C(=O)N[C@@H](Cc2cccc3ccccc23)c2nnnn2[C@@H](CCCC)C(=O)N1C [Example 1052] |
| 100 to 10000 | CCCC[C@H]1C(=O)N[C@H](CCCNC(=N)N)C(=O)N[C@@H](C(=O)NCC(N)=O)CSCC(=O)N[C@@H](Cc2ccccc2)C(=O)N(C)[C@@H](C)C(=O)N[C@@H](CC(N)=O)C(=O)N2CCC[C@H]2C(=O)N[C@@H](Cc2cnc[nH]2)C(=O)N[C@@H](CC(C)C)C(=O)N(C)CC(=O)N[C@@H](Cc2c[nH]c3ccccc23)C(=O)N[C@@H](CO)C(=O)N[C@@H](Cc2cccc3ccccc23)c2nnnn2[C@@H](CCCC)C(=O)N1C [Example 1005] |
| 100 to 10000 | CCCC[C@H]1C(=O)N[C@@H](CCCN)C(=O)N[C@H](C(=O)NCC(N)=O)CSCC(=O)N[C@@H](Cc2ccc(O)cc2)C(=O)N(C)[C@@H](C)C(=O)N[C@@H](CC(N)=O)C(=O)N2CCC[C@H]2C(=O)N[C@@H](CN)C(=O)N[C@@H](CC(C)C)C(=O)N2C[C@H](O)C[C@H]2C(=O)N[C@@H](Cc2c[nH]c3ccccc23)C(=O)N[C@@H](CO)C(=O)N[C@@H](Cc2c[nH]c3ccccc23)c2nnnn2[C@@H](CCCC)C(=O)N1C [Example 1051] ({CH2CO}-Y[NMeA]NP[Dap]L[Hyp]WS[X1][NMeNle][Orn]CG-NH2; thioether N-13) |
| 100 to 10000 | CCCC[C@H]1C(=O)N[C@@H](CCCN)C(=O)NC(C(=O)NCC(N)=O)CSCC(=O)N[C@@H](Cc2ccc(O)cc2)C(=O)N2CCOC[C@H]2C(=O)N[C@@H](CC(N)=O)C(=O)N2CCC[C@H]2C(=O)N[C@@H](CN)C(=O)N[C@@H](CC(C)C)C(=O)N2C[C@H](O)C[C@H]2C(=O)N[C@@H](Cc2c[nH]c3ccccc23)C(=O)N[C@@H](CO)C(=O)N[C@@H](Cc2c[nH]c3ccccc23)c2nnnn2[C@@H](CCCC)C(=O)N1C (stereo partly drawn) [Example 1054] ({CH2CO}-Y[Morpholine(3S-CO)]NP[Dap]L[Hyp]WS[X1][NMeNle][Orn][ξC]G-NH2; thioether N-13) |
| 10 to 99 | CCCC[C@H]1C(=O)N[C@@H](CN)C(=O)N[C@H](C(=O)NCC(N)=O)CSCC(=O)N[C@@H](Cc2ccc(O)cc2)C(=O)N2CCCC[C@H]2C(=O)N[C@@H](CC(N)=O)C(=O)N2CCC[C@H]2C(=O)N[C@@H](CN)C(=O)N[C@@H](CCC(=O)O)C(=O)N2C[C@H](O)C[C@H]2C(=O)N[C@@H](Cc2c[nH]c3ccccc23)C(=O)N[C@@H](CCN)C(=O)N[C@@H](Cc2cccc3ccccc23)c2nnnn2[C@@H](CCCC)C(=O)N1C [Example 1059] |
| 100 to 10000 | CCCC[C@H]1C(=O)N[C@@H](CCC(=O)O)C(=O)N[C@H](C(=O)NCC(N)=O)CSCC(=O)N[C@@H](Cc2ccc(O)cc2)C(=O)N(C)[C@@H](C)C(=O)N[C@@H](CC(N)=O)C(=O)N2CCC[C@H]2C(=O)N[C@@H](CN)C(=O)N[C@@H](CC(C)C)C(=O)N2C[C@H](O)C[C@H]2C(=O)N[C@@H](Cc2c[nH]c3ccccc23)C(=O)N[C@@H](CO)C(=O)N[C@@H](Cc2c[nH]c3ccccc23)c2nnnn2[C@@H](CCCC)C(=O)N1C [Example 1102] ({CH2CO}-Y[NMeA]NP[Dap]L[Hyp]WS[X1][NMeNle]ECG-NH2; thioether N-13) |
| 100 to 10000 | CCCC[C@H]1C(=O)N[C@@H](C)C(=O)N[C@H](C(=O)NCC(N)=O)CSCC(=O)N[C@@H](Cc2ccc(O)cc2)C(=O)N(C)[C@@H](C)C(=O)N[C@@H](CC(=O)O)C(=O)N2CCC[C@H]2C(=O)N[C@@H](Cc2cnc[nH]2)C(=O)N[C@@H](CCC(N)=O)C(=O)N2C[C@H](O)C[C@H]2C(=O)N[C@@H](Cc2c[nH]c3ccccc23)C(=O)N[C@@H](CO)C(=O)N[C@@H](Cc2cccc3ccccc23)c2nnnn2[C@@H](CCCC)C(=O)N1C [Example 1103] |
| 100 to 10000 | CCCC[C@H]1C(=O)N[C@@H](C)C(=O)N[C@H](C(=O)NCC(N)=O)CSCC(=O)N[C@@H](Cc2ccc(O)cc2)C(=O)N[C@H](C)C(=O)N[C@@H](CC(=O)O)C(=O)N2CCC[C@H]2C(=O)N[C@@H](Cc2cnc[nH]2)C(=O)N[C@@H](CCC(N)=O)C(=O)N2C[C@H](O)C[C@H]2C(=O)N[C@@H](Cc2c[nH]c3ccccc23)C(=O)N[C@@H](CO)C(=O)N[C@@H](Cc2cccc3ccccc23)c2nnnn2[C@@H](CCCC)C(=O)N1C [Example 1113] |
| 100 to 10000 | CCCC[C@H]1C(=O)N[C@@H](CN)C(=O)N[C@H](C(=O)NCC(N)=O)CSCC(=O)N[C@@H](Cc2ccc(O)cc2)C(=O)N(C)[C@@H](C)C(=O)N[C@@H](CC(=O)O)C(=O)N2CCC[C@H]2C(=O)N[C@@H](Cc2c[nH]cn2)C(=O)N[C@@H](CCC(=O)O)C(=O)N2C[C@H](O)C[C@H]2C(=O)N[C@@H](Cc2c[nH]c3ccccc23)C(=O)N[C@@H](CO)C(=O)N[C@@H](Cc2cccc3ccccc23)c2nnnn2[C@@H](CCCC)C(=O)N1C [Example 1108] |

| Compound | IC50 [nM] |
| --- | --- |
| CCCC[C@H]1C(=O)N(C)[C@@H](CCCC)C(=O)N[C@@H](C)C(=O)N[C@H](C(=O)NCC(N)=O)CSCC(=O)N[C@@H](Cc2ccc(O)cc2)c2nnnn2[C@@H](C)C(=O)N[C@@H](CC(=O)O)C(=O)N2CCC[C@H]2C(=O)N[C@@H](Cc2c[nH]cn2)C(=O)N[C@@H](CCC(N)=O)C(=O)N2C[C@H](O)C[C@H]2C(=O)N[C@@H](Cc2c[nH]c3ccccc23)C(=O)N[C@@H](CO)C(=O)N[C@@H](Cc2csc3ccccc23)C(=O)N1C [Example 1105] ({CH2CO}-[Tyrψ(CN4)Ala]DPHQ[Hyp]WS[Bta][NMeNle][NMeNle]ACG-NH2; thioether N-13) | 100 to 10000 |
